{"source": "patent US8614252B2", "about": "“Crystalline solid rasagiline base” (Teva Pharmaceutical Industries Ltd., priority 2006, dated 2013)", "key": {"[1]": {"conditions": "pH 11"}, "[2]": {"conditions": "alcohols, acetone, ethyl acetate, toluene, diethyl ether, dioxane, hexane and n-heptane"}, "[3]": {"conditions": "low levels of volatiles by KF and TGA"}}}
{"smiles": "C#CCN[C@@H]1CCc2ccccc21", "note": "[rasagiline base, R(+)-N-propargyl-1-aminoindan]", "values": [{"measurement": "solubility in water", "setting": "[1]", "value": 5.5, "unit": "mg/mL"}, {"measurement": "solubility in organic solvents", "setting": "[2]", "value": "freely soluble"}, {"measurement": "hygroscopicity", "setting": "[3]", "value": "not hygroscopic"}]}
